Results from publication PMC13516207 (Pharmaceuticals, 2026).
Bridge positions count the residues as written; N and C are the ends. Square brackets hold non-standard residues; d marks the D form. Side chains are listed from the residue outwards. Peptide text beside a SMILES is read from it. * marks the point of attachment. NOTA = O=C(O)CN1CCN(CC(=O)O)CCN(CC(=O)*)CC1; 2Nal = N[C@@H](Cc1ccc2ccccc2c1)C(=O)O; Lys(iPr) = CC(C)NCCCC[C@H](N)C(=O)O

Molecular target: human CXCR4 (Homo sapiens, UniProt P61073)
Sequence (P61073 whole entry): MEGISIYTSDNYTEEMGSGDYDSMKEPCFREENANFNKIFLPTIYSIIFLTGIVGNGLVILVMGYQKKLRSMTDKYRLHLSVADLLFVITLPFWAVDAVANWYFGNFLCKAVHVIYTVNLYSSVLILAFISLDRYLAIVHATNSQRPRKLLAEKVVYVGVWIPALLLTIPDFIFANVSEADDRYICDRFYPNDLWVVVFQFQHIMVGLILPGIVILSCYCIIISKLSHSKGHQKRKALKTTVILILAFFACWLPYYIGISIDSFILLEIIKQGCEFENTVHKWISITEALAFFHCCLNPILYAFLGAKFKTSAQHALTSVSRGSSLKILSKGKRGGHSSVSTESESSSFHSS
Assay: CXCL12-AF647 competition binding on Jurkat cells, flow cytometry
Conditions: competition with CXCL12-AF647, mean ± SD
Method: Subsequently, 50 µL containing 0.25 × 10^6 Jurkat cells was added to each well, followed by 50 µL human CXCL12-AF647 (100 ng/mL; Almac, Craigavon, UK). Plates were incubated for 30 min at room temperature in the dark. After incubation, the cells were washed twice by centrifugation (400× g, 5 min) to replace the supernatant and subsequently fixed with 1% paraformaldehyde (Merck, Darmstadt, Germany). Fluorescence intensity was quantified by flow cytometry, and IC50 values were obtained by nonlinear regression analysis. All measurements were performed with at least four technical replicates.

SMILES	IC50 [nM]
CC(C)NCCCC[C@H](NC(=O)[C@H]1CCC(=O)N[C@@H](Cc2ccccc2)C(=O)N[C@@H](Cc2ccc(O)cc2)C(=O)N[C@@H](CCCCNC(C)C)C(=O)N[C@H](CCCNC(=N)N)C(=O)N[C@@H](Cc2ccc3ccccc3c2)C(=O)NCC(=O)N1)C(N)=O [LY2510924, cyclo[Phe-Tyr-Lys(iPr)-D-Arg-2-Nal-Gly-D-Glu]-Lys(iPr)-NH2] (FY[Lys(iPr)][dR][2Nal]G[dE][Lys(iPr)]-NH2; lactam N-7)	0.36 ± 0.07
CC(C)NCCCC[C@@H]1NC(=O)[C@H](Cc2ccc(O)cc2)NC(=O)[C@H](Cc2ccccc2)NC(=O)CC[C@H](C(=O)N[C@@H](CCCCNC(C)C)C(=O)N[C@@H](CCCCNC(=O)[C@H](CCC(=O)O)NC(=O)[C@H](CCC(=O)O)NC(=O)[C@H](CCC(=O)O)NC(=O)CN2CCN(CC(=O)O)CCN(CC(=O)O)CC2)C(N)=O)NC(=O)CNC(=O)[C@H](Cc2ccc3ccccc3c2)NC(=O)[C@@H](CCCNC(=N)N)NC1=O [[^natF]AlF-NOTA-SC] (FY[Lys(iPr)][dR][2Nal]G[dE][Lys(iPr)]K([Glu-Glu-Glu-NOTA])-NH2; lactam N-7)	14.4 ± 2.65
